Measurements as given in patent US20100081719A1 (priority 2006, published 2010).
Counter-ions that a name gives are not always drawn.

Tests used:
fibromyalgia patients = details: cited from earlier work
[1] = tested on: patients who meet the 1990 ACR criteria for fibromyalgia syndrome; assay: Multicenter, double-blind, randomized, placebo-controlled monotherapy study of milnacipran for treatment of fibromyalgia (Example 2); type: in vivo, human; details: 3-month treatment period (LOCF), intent-to-treat; for MFI total score, Change from baseline, Difference from Placebo / MFI total score, Change from baseline, LS Mean (SE): ANCOVA
Experimental: This was a multicenter, randomized, double-blind, placebo-controlled three-arm study designed which enrolled 1196 patients who meet the 1990 ACR criteria for fibromyalgia syndrome (history of widespread pain and pain in 11 of 18 tender point sites on digital palpation), as well as the more detailed admission criteria outlined in the protocol.
All randomized medications (placebo and milnacipran) were administered twice a day (BID).
(i) Primary Efficacy Assessments: Patient Global Impression of Change (PGIC) administered to patients at visits Tx3, Tx7, Tx11 and Tx15/ET; Physical Component summary of SF-36 (SF-36 PCS) administered to patients at visits BL2/Tx0, Tx3, Tx7, Tx11 and Tx15/ET; (ii) Secondary Efficacy Assessments: Time weighted average (AUC) of weekly average PED morning recall pain score; PGIC and SF-36 PCS administered to patients at visits Tx3 to Tx15.
(iii) Additional Efficacy Measurements: The Fibromyalgia Impact Questionnaire (FIQ) total score and physical function, Beck Depression Inventory (BDI), the MOS-Sleep Index Scale, the Arizona Sexual Experiences Scale (ASEX), Patient pain 24 hour and 7 day recall VAS, the SF-36 individual domains, Patient Global Disease Status, Patient Global Therapeutic Benefit, the Multiple Ability Self-report Questionnaire (MASQ, cognitive function), the Multidimensional Health Assessment Questionnaire (MDHAQ), Multidimensional Fatigue Inventory (MFI), and diary assessments including current pain (morning, random daily, and evening reports); overall pain past week (weekly report), overall fatigue in the last week (weekly report), and the extent that pain kept the patient from caring for themselves (weekly report).

[2] = both milnacipran treatment groups (BID and QD), up to 200 mg/day

CCN(CC)C(=O)C1(c2ccccc2)CC1CN (racemic) [milnacipran, Z-2-aminomethyl-1-phenyl-N, N-diethylcyclopropanecarboxamide hydrochloride]
Therapy for the symptom of pain in FMS (fibromyalgia patients; 100 mg BID): effective acute (short-term) therapy
PGIC: completers who reported an improvement in their overall status (fibromyalgia patients; [2]): over 70%
PGIC: completers who reported worsening (fibromyalgia patients; [2]): 10%
Deaths or serious adverse events associated with treatment (fibromyalgia patients; milnacipran-treated patients): no deaths or serious adverse events
Patients in whom elevation in hepatic enzymes resulted in adverse events (fibromyalgia patients; milnacipran-treated patients): 2%
Effect on fatigue, mood, global wellness, and function, BID vs QD dosing (fibromyalgia patients; twice-daily (BID) vs once-daily (QD) dosing): approximately equally effective
Treating pain, BID vs QD dosing (fibromyalgia patients; twice-daily vs QD dosing): more effective in treating pain than QD dosing
MFI total score, Actual, Mean ([1]; 100 mg milnacipran): 63.00
MFI total score, Actual, Median ([1]; 100 mg milnacipran): 64.0
MFI total score, Change from baseline, Mean ([1]; 100 mg milnacipran): −5.39
MFI total score, Change from baseline, Median ([1]; 100 mg milnacipran): −4.0
MFI total score, Change from baseline, Difference from Placebo ([1]; 100 mg milnacipran): −1.80
MFI total score, Change from baseline, LS Mean (SE) ([1]; 100 mg milnacipran): −5.47 (0.792)
MFI total score, Actual, Mean ([1]; 200 mg milnacipran): 64.15
MFI total score, Actual, Median ([1]; 200 mg milnacipran): 65.0
MFI total score, Change from baseline, Mean ([1]; 200 mg milnacipran): −5.39
MFI total score, Change from baseline, Median ([1]; 200 mg milnacipran): −4.0
MFI total score, Change from baseline, Difference from Placebo ([1]; 200 mg milnacipran): −1.55
MFI total score, Change from baseline, LS Mean (SE) ([1]; 200 mg milnacipran): −5.63 (0.787)
